The structures appear in SMILES notation.

The subject of this assay is Mus musculus. The assay can be described thus: Antimalarial activity against Plasmodium berghei K173 in mice (Mus musculus) by peroral administration using peanut oil. Type of assay: functional.
Take `C[C@@H]1CC[C@H]2[C@@H](C)C(Nc3ccc(Br)cc3)O[C@@H]3O[C@@]4(C)CC[C@@H]1[C@]32OO4` (stereo partly specified): the SD50 was determined as 2.7 mg/kg/day and the SD90 turned out to be 9.1 mg/kg/day.

With `Cc1ccc(NC2O[C@@H]3O[C@@]4(C)CC[C@H]5[C@H](C)CC[C@@H]([C@H]2C)[C@@]35OO4)cc1` (stereo partly specified), the SD50 came to 2.77 mg/kg/day and the SD90 was 6.08 mg/kg/day.

With `C[C@@H]1CC[C@H]2[C@@H](C)C(Nc3cccc(C(=O)O)c3)O[C@@H]3O[C@@]4(C)CC[C@@H]1[C@]32OO4` (stereo partly specified), the SD50 came to 2.76 mg/kg/day and the SD90 came to 8.23 mg/kg/day.

For the compound `C[C@@H]1CC[C@H]2[C@@H](C)C(Nc3cccc(Cl)c3)O[C@@H]3O[C@@]4(C)CC[C@@H]1[C@]32OO4` (stereo partly specified), the SD50 was found to be 1.62 mg/kg/day and the SD90 stood at 4.8 mg/kg/day.

For the compound `C[C@@H]1CC[C@H]2[C@@H](C)C(Nc3ccccc3)O[C@@H]3O[C@@]4(C)CC[C@@H]1[C@]32OO4` (stereo partly specified), the SD50 was 2.63 mg/kg/day and the SD90 is 7.3 mg/kg/day.

Turning to `COc1ccc(NC2O[C@@H]3O[C@@]4(C)CC[C@H]5[C@H](C)CC[C@@H]([C@H]2C)[C@@]35OO4)cc1` (stereo partly specified), the SD50 was 3.5 mg/kg/day and the SD90 is 11.23 mg/kg/day.

As to `C[C@@H]1CC[C@H]2[C@@H](C)C(Nc3ccc(I)cc3)O[C@@H]3O[C@@]4(C)CC[C@@H]1[C@]32OO4` (stereo partly specified), the SD50 came to 4.56 mg/kg/day and the SD90 was 11.03 mg/kg/day.

`C[C@@H]1CC[C@H]2[C@@H](C)C(Nc3ccc(C(=O)O)cc3)O[C@@H]3O[C@@]4(C)CC[C@@H]1[C@]32OO4` (stereo partly specified): the SD50 turned out to be 1.36 mg/kg/day and the SD90 was 6.88 mg/kg/day.

Take `C[C@@H]1CC[C@H]2[C@@H](C)C(Nc3ccc(Cl)cc3)O[C@@H]3O[C@@]4(C)CC[C@@H]1[C@]32OO4` (stereo partly specified): the SD50 was 1.77 mg/kg/day and the SD90 came out at 4.5 mg/kg/day.

On to `C[C@@H]1CC[C@H]2[C@@H](C)C(Nc3cccc(Br)c3)O[C@@H]3O[C@@]4(C)CC[C@@H]1[C@]32OO4` (stereo partly specified), for which the SD50 was found to be 3.4 mg/kg/day and the SD90 was 5.38 mg/kg/day.

The compound `C[C@@H]1CC[C@H]2[C@@H](C)C(=O)O[C@@H]3O[C@@]4(C)CC[C@@H]1[C@]32OO4` [ARTEMISININ] yielded an SD50 of 5.13 mg/kg/day.

Source of the values: ChEMBL document CHEMBL1151548 (1995).
